SMILES strings stand for the structures.

For orientation: IC50 means the concentration that inhibits the measured activity by half. A low value points to greater potency.

Experiment [1] concerns the target Tyro3 tyrosine kinase (Homo sapiens (Human), UniProt Q06418). The experiment in a line: Evaluation of activity against Tyro3 tyrosine kinase. It counts as biochemical.
In experiment [2] the target is Mer tyrosine kinase (Homo sapiens (Human), UniProt Q12866). The experiment in a line: Evaluation of activity against Mer tyrosine kinase. Format: biochemical.
Chain of Mer tyrosine kinase (Q12866 21-999): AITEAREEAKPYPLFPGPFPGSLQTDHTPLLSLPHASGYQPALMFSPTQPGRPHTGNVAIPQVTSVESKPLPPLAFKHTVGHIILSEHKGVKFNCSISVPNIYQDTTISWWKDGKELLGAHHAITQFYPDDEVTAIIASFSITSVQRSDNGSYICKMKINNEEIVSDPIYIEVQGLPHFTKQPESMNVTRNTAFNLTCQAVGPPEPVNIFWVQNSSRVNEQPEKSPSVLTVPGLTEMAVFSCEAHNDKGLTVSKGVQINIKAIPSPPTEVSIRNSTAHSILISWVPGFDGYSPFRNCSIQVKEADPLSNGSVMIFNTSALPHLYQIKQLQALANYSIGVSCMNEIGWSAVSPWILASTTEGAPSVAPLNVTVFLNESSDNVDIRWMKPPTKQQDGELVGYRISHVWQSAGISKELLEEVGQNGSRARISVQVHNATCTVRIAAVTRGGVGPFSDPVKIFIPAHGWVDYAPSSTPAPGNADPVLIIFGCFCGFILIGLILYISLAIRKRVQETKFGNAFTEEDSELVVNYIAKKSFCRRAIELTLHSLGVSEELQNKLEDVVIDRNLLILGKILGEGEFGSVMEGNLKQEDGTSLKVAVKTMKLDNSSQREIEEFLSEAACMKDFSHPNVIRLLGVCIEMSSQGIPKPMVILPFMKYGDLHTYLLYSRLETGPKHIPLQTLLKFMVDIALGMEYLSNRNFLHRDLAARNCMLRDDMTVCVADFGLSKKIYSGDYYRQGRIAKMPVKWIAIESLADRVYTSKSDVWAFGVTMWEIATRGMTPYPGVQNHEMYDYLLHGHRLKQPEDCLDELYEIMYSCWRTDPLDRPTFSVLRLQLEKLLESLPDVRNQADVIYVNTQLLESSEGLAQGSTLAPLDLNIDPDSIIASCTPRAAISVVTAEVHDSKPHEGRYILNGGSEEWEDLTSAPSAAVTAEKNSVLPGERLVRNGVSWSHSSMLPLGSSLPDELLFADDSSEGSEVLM

Chain of Tyro3 tyrosine kinase (Q06418 41-890): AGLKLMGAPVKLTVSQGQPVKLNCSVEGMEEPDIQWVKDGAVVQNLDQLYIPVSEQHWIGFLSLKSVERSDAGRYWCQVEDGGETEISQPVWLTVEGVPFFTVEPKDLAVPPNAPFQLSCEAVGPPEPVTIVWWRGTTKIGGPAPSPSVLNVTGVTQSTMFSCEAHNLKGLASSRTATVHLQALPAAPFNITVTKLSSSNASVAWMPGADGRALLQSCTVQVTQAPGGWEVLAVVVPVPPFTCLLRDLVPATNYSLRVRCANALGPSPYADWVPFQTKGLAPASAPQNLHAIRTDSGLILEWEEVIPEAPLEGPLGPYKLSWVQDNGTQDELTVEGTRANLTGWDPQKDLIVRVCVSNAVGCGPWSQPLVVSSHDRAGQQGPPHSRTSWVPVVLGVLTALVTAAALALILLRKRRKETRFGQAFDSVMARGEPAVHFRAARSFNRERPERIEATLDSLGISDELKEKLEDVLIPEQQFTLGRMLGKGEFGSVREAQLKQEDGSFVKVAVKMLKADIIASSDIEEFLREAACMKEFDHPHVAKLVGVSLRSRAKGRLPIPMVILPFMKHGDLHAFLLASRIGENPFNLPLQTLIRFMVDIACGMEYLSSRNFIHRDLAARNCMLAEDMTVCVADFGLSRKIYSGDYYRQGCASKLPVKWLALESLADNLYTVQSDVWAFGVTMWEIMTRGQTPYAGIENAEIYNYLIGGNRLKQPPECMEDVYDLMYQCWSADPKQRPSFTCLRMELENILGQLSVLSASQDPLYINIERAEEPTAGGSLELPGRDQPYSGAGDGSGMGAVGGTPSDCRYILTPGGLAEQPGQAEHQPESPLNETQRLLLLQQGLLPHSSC

Take `CCC[C@H](C)Nc1ncc2c(C3CCN(C(=O)c4cncs4)CC3)cn([C@H]3CC[C@H](O)CC3)c2n1` [compound 59, (4-(7-((1R,4S)-4-hydroxycyclohexyl)-2-(((S)-pentan-2-yl)amino)-7H-pyrrolo[2,3-d]pyrimidin-5-yl)piperidin-1-yl)(thiazol-5-yl)methanone]: the values for the 50% inhibitory concentration (IC50) in experiment [1] and in experiment [2] were 0.01 to 0.1 µM and under 0.01 µM, respectively.
The matching figures for `CCC[C@H](C)Nc1ncc2c(C3CCN(C(=O)C4CCNCC4)CC3)cn([C@H]3CC[C@H](O)CC3)c2n1` [compound 8, (4-(7-((1R,4S)-4-hydroxycyclohexyl)-2-(((S)-pentan-2-yl)amino)-7H-pyrrolo[2,3-d]pyrimidin-5-yl)piperidin-1-yl)(piperidin-4-yl)methanone]: 0.01 to 0.1 µM and under 0.01 µM.
Regarding `CCC[C@H](C)Nc1ncc2c(C3CCN(C(=O)c4ccc(CN(C)C)cc4)CC3)cn([C@H]3CC[C@H](O)CC3)c2n1` [compound 87, (4-((dimethylamino)methyl)phenyl)(4-(7-((1R,4S)-4-hydroxycyclohexyl)-2-(((S)-pentan-2-yl)amino)-7H-pyrrolo[2,3-d]pyrimidin-5-yl)piperidin-1-yl)methanone], the IC50 was 0.01 to 0.1 µM in experiment [1] and under 0.01 µM in experiment [2].
As to `CCC[C@H](C)Nc1ncc2c(C3CCN(S(=O)(=O)C4CCNCC4)CC3)cn([C@H]3CC[C@H](O)CC3)c2n1` [compound 3, (1S,4R)-4-(2-(((S)-pentan-2-yl)amino)-5-(1-(piperidin-4-ylsulfonyl)piperidin-4-yl)-7H-pyrrolo[2,3-d]pyrimidin-7-yl)cyclohexan-1-ol], the IC50 is 0.01 to 0.1 µM in experiment [1] and under 0.01 µM in experiment [2].
Turning to `CCC[C@H](C)Nc1ncc2c(C3CCN(C(=O)c4ccccc4OC)CC3)cn([C@H]3CC[C@H](O)CC3)c2n1` [compound 33, (4-(7-((1R,4S)-4-hydroxycyclohexyl)-2-(((S)-pentan-2-yl)amino)-7H-pyrrolo[2,3-d]pyrimidin-5-yl)piperidin-1-yl)(2-methoxyphenyl)methanone], the IC50 in experiment [1] is 0.1 to 1 µM; in experiment [2] it was under 0.01 µM.
Take `CCC[C@H](C)Nc1ncc2c(C3CCN(C(=O)c4ccc(F)cc4)CC3)cn([C@H]3CC[C@H](O)CC3)c2n1` [compound 89, (4-fluorophenyl)(4-(7-((1R,4S)-4-hydroxycyclohexyl)-2-(((S)-pentan-2-yl)amino)-7H-pyrrolo[2,3-d]pyrimidin-5-yl)piperidin-1-yl)methanone]: the 50% inhibitory concentration (IC50) was 0.1 to 1 µM in experiment [1] and under 0.01 µM in experiment [2].
The matching figures for `CCC[C@H](C)Nc1ncc2c(C3CCN(C(=O)c4ccc(CNC)cc4)CC3)cn([C@H]3CC[C@H](O)CC3)c2n1` [compound 85, (4-(7-((1R,4S)-4-hydroxycyclohexyl)-2-(((S)-pentan-2-yl)amino)-7H-pyrrolo[2,3-d]pyrimidin-5-yl)piperidin-1-yl)(4-((methylamino)methyl)phenyl)methanone]: 0.01 to 0.1 µM and under 0.01 µM.
As for `CCC[C@H](C)Nc1ncc2c(C3CCN(C(=O)C4CCN(CCF)CC4)CC3)cn([C@H]3CC[C@H](O)CC3)c2n1` [compound 36, (1-(2-fluoroethyl)piperidin-4-yl)(4-(7-((1R,4S)-4-hydroxycyclohexyl)-2-(((S)-pentan-2-yl)amino)-7H-pyrrolo[2,3-d]pyrimidin-5-yl)piperidin-1-yl)methanone], the results for the IC50 in experiment [1] and in experiment [2] were 0.01 to 0.1 µM and under 0.01 µM, respectively.
The matching figures for `CCC[C@H](C)Nc1ncc2c(C3CCN(CC4CCN(C)CC4)CC3)cn([C@H]3CC[C@H](O)CC3)c2n1` [compound 54, (1S,4R)-4-(5-(1-((1-methylpiperidin-4-yl)methyl)piperidin-4-yl)-2-(((S)-pentan-2-yl)amino)-7H-pyrrolo[2,3-d]pyrimidin-7-yl)cyclohexan-1-ol]: 0.01 to 0.1 µM and under 0.01 µM.
Take `CCC[C@H](C)Nc1ncc2c(C3CCN(C(=O)C4CCCN4C)CC3)cn([C@H]3CC[C@H](O)CC3)c2n1` (stereo partly drawn) [compound 16, 7-((1R,4S)-4-hydroxycyclohexyl)-5-(1-(methylprolyl)piperidin-4-yl)-2-(((S)-pentan-2-yl)amino)-7H-pyrrolo[2,3-d]pyrimidine]: the concentration for half-maximal inhibition (IC50) was 0.01 to 0.1 µM in experiment [1] and under 0.01 µM in experiment [2].
The matching figures for `CCC[C@H](C)Nc1ncc2c(C3CCN(C(=O)c4cc(OC)cc(OC)c4)CC3)cn([C@H]3CC[C@H](O)CC3)c2n1` [compound 80, (3,5-dimethoxyphenyl)(4-(7-((1R,4S)-4-hydroxycyclohexyl)-2-(((S)-pentan-2-yl)amino)-7H-pyrrolo[2,3-d]pyrimidin-5-yl)piperidin-1-yl)methanone]: 0.1 to 1 µM and under 0.01 µM.
In the same order, the values of `CC[C@@H]1C[C@H]1Nc1ncc2c(C3CCN(C(=O)c4ccncc4)CC3)cn([C@H]3CC[C@H](O)CC3)c2n1` [compound 43, (4-(2-(((1R,2R)-2-ethylcyclopropyl)amino)-7-((1R,4R)-4-hydroxycyclohexyl)-7H-pyrrolo[2,3-d]pyrimidin-5-yl)piperidin-1-yl)(pyridin-4-yl)methanone] are 0.1 to 1 µM and under 0.01 µM.
For `CCC(CC)CNc1ncc2c(C3CCN(C(=O)c4cc(C)nc(C)c4)CC3)cn([C@H]3CC[C@H](O)CC3)c2n1` [compound 69, (2,6-dimethylpyridin-4-yl)(4-(2-((2-ethylbutyl)amino)-7-((1r,4r)-4-hydroxycyclohexyl)-7H-pyrrolo[2,3-d]pyrimidin-5-yl)piperidin-1-yl)methanone], the half-maximal inhibitory concentration (IC50) in experiment [1] was 0.01 to 0.1 µM; in experiment [2], under 0.01 µM.
In the same order, the values of `CCC[C@H](C)Nc1ncc2c(C3CCN(C(=O)c4cc(C)nc(C)c4)CC3)cn([C@H]3CC[C@H](CO)CC3)c2n1` [compound 86] are 0.01 to 0.1 µM and under 0.01 µM.
The matching figures for `CCC[C@H](C)Nc1ncc2c(C3CCN(C(=O)[C@H]4CCCCN4)CC3)cn([C@H]3CC[C@H](O)CC3)c2n1` [compound 20, (4-(7-((1R,4S)-4-hydroxycyclohexyl)-2-(((S)-pentan-2-yl)amino)-7H-pyrrolo[2,3-d]pyrimidin-5-yl)piperidin-1-yl)((R)-piperidin-2-yl)methanone]: 0.1 to 1 µM and under 0.01 µM.
As to `CCC[C@H](C)Nc1ncc2c(C3CCN(C(=O)CCOC)CC3)cn([C@H]3CC[C@H](O)CC3)c2n1` [compound 9, 1-(4-(7-((1R,4S)-4-hydroxycyclohexyl)-2-(((S)-pentan-2-yl)amino)-7H-pyrrolo[2,3-d]pyrimidin-5-yl)piperidin-1-yl)-3-methoxypropan-1-one], the 50% inhibitory concentration (IC50) in experiment [1] was 0.1 to 1 µM; in experiment [2], under 0.01 µM.
As to `CCC[C@H](C)Nc1ncc2c(C3CCN(C(=O)c4cc[nH]c4)CC3)cn([C@H]3CC[C@H](O)CC3)c2n1` [compound 61, (4-(7-((1R,4S)-4-hydroxycyclohexyl)-2-(((S)-pentan-2-yl)amino)-7H-pyrrolo[2,3-d]pyrimidin-5-yl)piperidin-1-yl)(1H-pyrrol-3-yl)methanone], the half-inhibitory concentration (IC50) in experiment [1] was 0.1 to 1 µM; in experiment [2], under 0.01 µM.
Consider `CCC[C@H](C)Nc1ncc2c(C3CCN(C(=O)c4ccc[nH]4)CC3)cn([C@H]3CC[C@H](O)CC3)c2n1` [compound 60, (4-(7-((1R,4S)-4-hydroxycyclohexyl)-2-(((S)-pentan-2-yl)amino)-7H-pyrrolo[2,3-d]pyrimidin-5-yl)piperidin-1-yl)(1H-pyrrol-2-yl)methanone], for which the IC50 in experiment [1] was 0.1 to 1 µM; in experiment [2] it was under 0.01 µM.
Regarding `CCC[C@H](C)Nc1ncc2c(C3CCN(C(=O)c4cccc(OC)c4)CC3)cn([C@H]3CC[C@H](O)CC3)c2n1` [compound 32, (4-(7-((1R,4S)-4-hydroxycyclohexyl)-2-(((S)-pentan-2-yl)amino)-7H-pyrrolo[2,3-d]pyrimidin-5-yl)piperidin-1-yl)(3-methoxyphenyl)methanone], the results for the half-inhibitory concentration (IC50) in experiment [1] and in experiment [2] were 0.1 to 1 µM and under 0.01 µM, respectively.
For `CCC[C@H](C)Nc1ncc2c(C3CCN(C(=O)c4ccc(N)cc4)CC3)cn([C@H]3CC[C@H](O)CC3)c2n1` [compound 82, (4-aminophenyl)(4-(7-((1R,4S)-4-hydroxycyclohexyl)-2-(((S)-pentan-2-yl)amino)-7H-pyrrolo[2,3-d]pyrimidin-5-yl)piperidin-1-yl)methanone], the IC50 in experiment [1] was 0.1 to 1 µM; in experiment [2] it was under 0.01 µM.
With `CCC[C@H](C)Nc1ncc2c(C3CCN(C(=O)c4cc(C)nc(C)c4)CC3)cn([C@H]3CC[C@H](O)CC3)c2n1` [compound 34, (2,6-dimethylpyridin-4-yl)(4-(7-((1R,4S)-4-hydroxycyclohexyl)-2-(((S)-pentan-2-yl)amino)-7H-pyrrolo[2,3-d]pyrimidin-5-yl)piperidin-1-yl)methanone], the IC50 in experiment [1] is 0.01 to 0.1 µM; in experiment [2], under 0.01 µM.
On to `CCC[C@H](C)Nc1ncc2c(C3CCN(C(=O)c4cc(C)nc(C)c4)CC3)cn(C[C@H]3CC[C@H](N)CC3)c2n1` [compound 102, (4-(7-(((1R,4S)-4-aminocyclohexyl)methyl)-2-(((S)-pentan-2-yl)amino)-7H-pyrrolo[2,3-d]pyrimidin-5-yl)piperidin-1-yl)(2,6-dimethylpyridin-4-yl)methanone], for which the IC50 in experiment [1] is 0.1 to 1 µM; in experiment [2], under 0.01 µM.
As for `Cc1cc(C(=O)N2CCC(c3cn([C@H]4CC[C@H](O)CC4)c4nc(N[C@@H](C)c5ccc(F)cc5)ncc34)CC2)cc(C)n1` [compound 75, (2,6-dimethylpyridin-4-yl)(4-(2-(((S)-1-(4-fluorophenyl)ethyl)amino)-7-((1R,4S)-4-hydroxycyclohexyl)-7H-pyrrolo[2,3-d]pyrimidin-5-yl)piperidin-1-yl)methanone], the IC50 in experiment [1] was 0.01 to 0.1 µM; in experiment [2], under 0.01 µM.
Regarding `CCC[C@H](C)Nc1ncc2c(C3CCN(C)C3)cn([C@H]3CC[C@H](O)CC3)c2n1` (stereo partly drawn) [compound 99, (1S,4R)-4-(5-(1-methylpyrrolidin-3-yl)-2-(((S)-pentan-2-yl)amino)-7H-pyrrolo[2,3-d]pyrimidin-7-yl)cyclohexan-1-ol], the IC50 was 0.1 to 1 µM in experiment [1] and under 0.01 µM in experiment [2].
